Structures are written as SMILES. Where two headings read alike, the source gives them in different places. *1 amine or outer side, *2 acyl side, *3 side chain or, on linkers, in order; H or OH if unused. Where a SMILES comes first, the peptide text is derived from it. Side-chain parts run from the residue outwards. [ ]: non-standard residue; d: D form. The star is where a group is joined. Decanoyl(10-(4-HOOC-PhO)) = O=C(O)c1ccc(OCCCCCCCCCC(=O)*)cc1; αMePhe(2-F) = C[C@](N)(Cc1ccccc1F)C(=O)O; γGlu = O=C(O)[C@H](CCC(=O)[*:2])N[*:1]; C14 diacid = O=C(O)CCCCCCCCCCCCC(=O)*; αMeY = C[C@](N)(Cc1ccc(O)cc1)C(=O)O; 4Pal = N[C@@H](Cc1ccncc1)C(=O)O; αMeL = CC(C)C[C@](C)(N)C(=O)O; Orn = NCCC[C@H](N)C(=O)O; AEEA = NCCOCCOCC(=O)O; Aib = CC(C)(N)C(=O)O

What all share (type): cell-based
The target in experiment [1] is T1, hGCGR (Homo sapiens, UniProt P47871).
T1 construct: expressed in transfected cells
T1 sequence (P47871 26-477): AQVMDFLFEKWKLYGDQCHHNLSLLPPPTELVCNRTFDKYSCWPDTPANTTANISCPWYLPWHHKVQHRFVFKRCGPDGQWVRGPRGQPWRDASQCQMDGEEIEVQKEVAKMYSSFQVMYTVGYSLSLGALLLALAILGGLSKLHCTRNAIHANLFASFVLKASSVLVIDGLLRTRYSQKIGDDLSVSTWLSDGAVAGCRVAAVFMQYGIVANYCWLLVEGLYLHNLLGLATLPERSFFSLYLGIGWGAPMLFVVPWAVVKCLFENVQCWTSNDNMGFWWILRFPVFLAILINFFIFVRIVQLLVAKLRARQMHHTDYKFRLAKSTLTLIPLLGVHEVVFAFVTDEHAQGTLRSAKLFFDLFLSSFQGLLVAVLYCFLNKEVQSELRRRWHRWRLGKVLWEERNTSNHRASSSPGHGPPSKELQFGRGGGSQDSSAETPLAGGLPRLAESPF
The experiment can be described thus: Functional cAMP formation (HTRF) in HEK-293 clonal cells expressing hGCGR, 0.1% bovine casein, without or with 1.0% human serum albumin. Put shortly:
(§1)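 Cells were stimulated with peptide for 30 min at 37° C, then intracellular cAMP was measured by competitive HTRF (665/620 nm ratio) and converted to nM using a cAMP standard curve. Relative EC50 and Emax came from four-parameter logistic fits of percent maximal response against peptide concentration.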
For orientation: cAMP levels reflect the balance of adenylyl cyclase and phosphodiesterase activity.

The target in experiment [2] is hGLP-1R (Homo sapiens, UniProt P43220). The experiment can be described thus: Functional cAMP formation (HTRF) in HEK-293 clonal cells expressing hGLP-1R, 0.1% bovine casein, without or with 1.0% human serum albumin. The arrangement: expressed in transfected cells. Summed up: as §1
hGLP-1R, sequence (P43220 24-463): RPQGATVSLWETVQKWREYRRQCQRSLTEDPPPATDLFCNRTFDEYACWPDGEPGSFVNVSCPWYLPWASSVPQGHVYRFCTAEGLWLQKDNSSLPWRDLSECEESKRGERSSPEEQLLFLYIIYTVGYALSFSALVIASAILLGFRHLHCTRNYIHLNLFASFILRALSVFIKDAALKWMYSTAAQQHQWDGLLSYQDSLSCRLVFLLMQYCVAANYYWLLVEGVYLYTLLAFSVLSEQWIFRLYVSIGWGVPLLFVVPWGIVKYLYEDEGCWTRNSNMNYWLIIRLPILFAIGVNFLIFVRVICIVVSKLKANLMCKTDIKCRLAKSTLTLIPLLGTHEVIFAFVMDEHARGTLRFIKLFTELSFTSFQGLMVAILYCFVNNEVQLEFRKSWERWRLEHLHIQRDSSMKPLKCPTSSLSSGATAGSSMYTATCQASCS
For experiment [3], the target named is T2, hGIPR (Homo sapiens, UniProt P48546).
T2 construct: expressed in transfected cells
T2 sequence (P48546 22-466): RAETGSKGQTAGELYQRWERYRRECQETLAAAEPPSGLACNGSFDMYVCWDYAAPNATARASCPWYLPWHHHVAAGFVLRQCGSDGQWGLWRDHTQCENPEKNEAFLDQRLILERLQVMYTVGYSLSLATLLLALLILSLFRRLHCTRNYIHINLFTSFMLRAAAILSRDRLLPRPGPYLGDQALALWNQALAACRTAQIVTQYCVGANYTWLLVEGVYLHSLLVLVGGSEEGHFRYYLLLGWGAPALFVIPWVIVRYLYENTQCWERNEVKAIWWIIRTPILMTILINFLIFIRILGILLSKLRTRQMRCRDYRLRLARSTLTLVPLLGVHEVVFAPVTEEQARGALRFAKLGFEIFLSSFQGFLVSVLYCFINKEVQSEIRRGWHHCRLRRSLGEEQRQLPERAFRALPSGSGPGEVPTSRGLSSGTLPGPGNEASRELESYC
The experiment can be described thus: Functional cAMP formation (HTRF) in HEK-293 clonal cells expressing hGIPR, 0.1% bovine casein, without or with 1.0% human serum albumin. Particulars: for EC50: geometric mean. Put shortly:
as §1

A word on the EC50: it is the concentration giving half of the maximal effect. What is called Emax is the size of the effect at its maximum, as opposed to the concentration needed. Turning to `CC[C@H](C)[C@H](NC(=O)[C@H](CC(C)C)NC(=O)[C@](C)(Cc1ccc(O)cc1)NC(=O)[C@@H](CCC(=O)O)NC(=O)[C@@H](NC(=O)[C@H](Cc1ccccc1)NC(=O)[C@H](CCC(=O)O)NC(=O)C(C)(C)NC(=O)[C@H](CCC(N)=O)NC(=O)[C@H](C)NC(=O)[C@H](CCCCNC(=O)COCCOCCNC(=O)COCCOCCNC(=O)CC[C@H](NC(=O)CCCCCCCCCCCCC(=O)O)C(=O)O)NC(=O)[C@H](CCCN)NC(=O)[C@H](CC(=O)O)NC(=O)[C@H](CC(C)C)NC(=O)[C@](C)(CC(C)C)NC(=O)[C@@H](NC(=O)[C@H](CO)NC(=O)[C@H](Cc1ccncc1)NC(=O)[C@H](CC(=O)O)NC(=O)[C@H](CO)NC(=O)[C@@H](NC(=O)[C@](C)(Cc1ccccc1F)NC(=O)[C@@H](NC(=O)CNC(=O)[C@H](CCC(=O)O)NC(=O)C(C)(C)NC(=O)[C@@H](N)Cc1ccc(O)cc1)[C@@H](C)O)[C@@H](C)O)[C@@H](C)CC)[C@@H](C)CC)C(=O)N[C@@H](CCC(=O)O)C(=O)NCC(=O)NCC(=O)N[C@@H](CCCCNC(=O)COCCOCCNC(=O)COCCOCCNC(=O)CC[C@H](NC(=O)CCCCCCCCCCCCC(=O)O)C(=O)O)C(N)=O` [Example 184] (H-Y[Aib]EGT[αMePhe(2-F)]TSD[4Pal]SI[αMeL]LD[Orn]K([AEEA-AEEA-γGlu-C14 diacid])AQ[Aib]EFI[dE][αMeY]LIEGGK([AEEA-AEEA-γGlu-C14 diacid])-NH2), the EC50 in experiment [1] (0.1% bovine casein and 1.0% human serum albumin, 37° C., geometric mean, read-out: hGCGR EC50, nM (SEM, n)) was greater than 9950 nM; in experiment [1] (cAMP, incubated at 37° C., 0.1% bovine casein (no human serum albumin), geometric mean, read-out: hGCGR EC50, nM (SEM, n)), greater than 9950 nM; in experiment [2] (0.1% bovine casein and 1.0% human serum albumin, 37° C., geometric mean, read-out: hGLP-1R EC50, nM (SEM, n)), 119 nM; in experiment [2] (cAMP, incubated at 37° C., 0.1% bovine casein (no human serum albumin), geometric mean, read-out: hGLP-1R EC50, nM (SEM, n)) it was 1.82 nM; in experiment [3] (0.1% bovine casein and 1.0% human serum albumin, 37° C., read-out: hGIPR EC50, nM (SEM, n)), 2.46 nM; in experiment [3] (cAMP, incubated at 37° C., 0.1% bovine casein (no human serum albumin), read-out: hGIPR EC50, nM (SEM, n)), 0.0354 nM. The Emax stood at 87.8% in experiment [2] (HEK293, 0.1% bovine casein and 1.0% human serum albumin, 37° C., percent of maximal response to GLP-1(7-36)NH2, read-out: hGLP-1R Emax, % ± SEM); 96.8 ± 12% in experiment [2] (HEK293, percent of maximal response to GLP-1(7-36)NH2, 37° C., 0.1% bovine casein, arithmetic mean, read-out: hGLP-1R Emax, % ± SEM); 81.2% in experiment [3] (HEK293, 0.1% bovine casein and 1.0% human serum albumin, 37° C., percent of maximal response to GIP(1-42)NH2, read-out: hGIPR Emax, % ± SEM); 95.2 ± 1.13% in experiment [3] (HEK293, percent of maximal response to GIP(1-42)NH2, 37° C., 0.1% bovine casein, arithmetic mean, read-out: hGIPR Emax, % ± SEM).

Take `CC[C@H](C)[C@H](NC(=O)[C@H](CC(C)C)NC(=O)[C@](C)(Cc1ccc(O)cc1)NC(=O)[C@@H](CCC(=O)O)NC(=O)[C@@H](NC(=O)[C@H](Cc1ccccc1)NC(=O)[C@H](CCCCNC(=O)COCCOCCNC(=O)COCCOCCNC(=O)CC[C@H](NC(=O)CCCCCCCCCOc1ccc(C(=O)O)cc1)C(=O)O)NC(=O)C(C)(C)NC(=O)[C@H](CCC(N)=O)NC(=O)[C@H](C)NC(=O)[C@H](CCCCNC(=O)COCCOCCNC(=O)COCCOCCNC(=O)CC[C@H](NC(=O)CCCCCCCCCOc1ccc(C(=O)O)cc1)C(=O)O)NC(=O)[C@H](CCCN)NC(=O)[C@H](CC(=O)O)NC(=O)[C@H](CC(C)C)NC(=O)[C@](C)(CC(C)C)NC(=O)[C@@H](NC(=O)C(C)(C)NC(=O)[C@H](Cc1ccc(O)cc1)NC(=O)[C@H](CC(=O)O)NC(=O)[C@H](CO)NC(=O)[C@@H](NC(=O)[C@](C)(Cc1ccccc1F)NC(=O)[C@@H](NC(=O)CNC(=O)[C@H](CCC(=O)O)NC(=O)C(C)(C)NC(=O)[C@@H](N)Cc1ccc(O)cc1)[C@@H](C)O)[C@@H](C)O)[C@@H](C)CC)[C@@H](C)CC)C(=O)N[C@@H](CCCN)C(=O)NCC(=O)NCC(=O)N1CCC[C@H]1C(=O)N[C@@H](CO)C(=O)N[C@@H](CO)C(=O)NCC(=O)N[C@@H](C)C(=O)N1CCC[C@H]1C(=O)N1CCC[C@H]1C(=O)N1CCC[C@H]1C(=O)N[C@@H](CO)C(N)=O` [Example 409] (H-Y[Aib]EGT[αMePhe(2-F)]TSDY[Aib]I[αMeL]LD[Orn]K([AEEA-AEEA-γGlu-Decanoyl(10-(4-HOOC-PhO))])AQ[Aib]K([AEEA-AEEA-γGlu-Decanoyl(10-(4-HOOC-PhO))])FI[dE][αMeY]LI[Orn]GGPSSGAPPPS-NH2; N-terminus assumed): the EC50 in experiment [1] (hGCGR EC50, nM (SEM, n), cAMP, 37° C., 0.1% bovine casein (no human serum albumin), geometric mean) is greater than 9950 nM; in experiment [1] (hGCGR EC50, nM (SEM, n), cAMP, 37° C., 0.1% bovine casein and 1.0% human serum albumin, geometric mean (SEM, n)), greater than 9950 nM; in experiment [2] (hGLP-1R EC50, nM (SEM, n), cAMP, 37° C., 0.1% bovine casein (no human serum albumin), geometric mean) it was 0.188 nM; in experiment [3] (hGIPR EC50, nM (SEM, n), cAMP, 37° C., 0.1% bovine casein (no human serum albumin)), 0.00928 nM. Also, the Emax in experiment [2] (HEK293, read-out: hGLP-1R Emax, % ± SEM, cAMP, 37° C., 0.1% bovine casein and 1.0% human serum albumin, percent of maximal response to GLP-1(7-36)NH2) came out at 97.7%; in experiment [3] (HEK293, read-out: hGIPR Emax, % ± SEM, cAMP, 37° C., 0.1% bovine casein and 1.0% human serum albumin, percent of maximal response to GIP(1-42)NH2) it was 84%.

Consider `CC[C@H](C)[C@H](NC(=O)[C@H](CCCN)NC(=O)[C@H](CC(=O)O)NC(=O)[C@H](CC(C)C)NC(=O)[C@](C)(CC(C)C)NC(=O)[C@@H](NC(=O)C(C)(C)NC(=O)[C@H](Cc1ccc(O)cc1)NC(=O)[C@H](CC(=O)O)NC(=O)[C@H](CO)NC(=O)[C@@H](NC(=O)[C@](C)(Cc1ccccc1F)NC(=O)[C@@H](NC(=O)CNC(=O)[C@H](CCC(=O)O)NC(=O)C(C)(C)NC(=O)[C@@H](N)Cc1ccc(O)cc1)[C@@H](C)O)[C@@H](C)O)[C@@H](C)CC)C(=O)N[C@@H](C)C(=O)N[C@@H](CCC(N)=O)C(=O)NC(C)(C)C(=O)N[C@@H](CCCN)C(=O)N[C@@H](Cc1ccccc1)C(=O)N[C@H](C(=O)N[C@@H](CCCCNC(=O)COCCOCCNC(=O)COCCOCCNC(=O)COCCOCCNC(=O)CC[C@H](NC(=O)CCCCCCCCCCCCC(=O)O)C(=O)O)C(=O)N[C@@](C)(Cc1ccc(O)cc1)C(=O)N[C@@H](CC(C)C)C(=O)N[C@H](C(=O)N[C@@H](CCCCNC(=O)COCCOCCNC(=O)COCCOCCNC(=O)COCCOCCNC(=O)CC[C@H](NC(=O)CCCCCCCCCCCCC(=O)O)C(=O)O)C(=O)NCC(=O)NCC(=O)N1CCC[C@H]1C(=O)N[C@@H](CO)C(=O)N[C@@H](CO)C(=O)NCC(=O)N[C@@H](C)C(=O)N1CCC[C@H]1C(=O)N1CCC[C@H]1C(=O)N1CCC[C@H]1C(=O)N[C@@H](CO)C(N)=O)[C@@H](C)CC)[C@@H](C)CC` [Example 478], for which the EC50 in experiment [1] (cAMP, 37° C., 0.1% bovine casein (no human serum albumin), geometric mean, read-out: hGCGR EC50, nM (SEM, n)) is greater than 9950 nM; in experiment [1] (cAMP, 37° C., 0.1% bovine casein and 1.0% human serum albumin, geometric mean (SEM, n), read-out: hGCGR EC50, nM (SEM, n)), greater than 9950 nM; in experiment [2] (cAMP, 37° C., 0.1% bovine casein (no human serum albumin), geometric mean, read-out: hGLP-1R EC50, nM (SEM, n)), 0.322 nM; in experiment [2] (cAMP, 37° C., 0.1% bovine casein and 1.0% human serum albumin, geometric mean (SEM, n), read-out: hGLP-1R EC50, nM (SEM, n)) it was 6.16 nM; in experiment [3] (cAMP, 37° C., 0.1% bovine casein (no human serum albumin), read-out: hGIPR EC50, nM (SEM, n)) it was 0.0139 nM. Also, the maximum response (Emax) in experiment [2] (HEK293, cAMP, 37° C., 0.1% bovine casein, percent of maximal response to GLP-1(7-36)NH2, arithmetic mean, read-out: hGLP-1R Emax, % ± SEM) came to 109%; in experiment [3] (HEK293, cAMP, 37° C., 0.1% bovine casein and 1.0% human serum albumin, percent of maximal response to GIP(1-42)NH2, read-out: hGIPR Emax, % ± SEM) it was 84%; in experiment [3] (HEK293, cAMP, 37° C., 0.1% bovine casein, percent of maximal response to GIP(1-42)NH2, arithmetic mean, read-out: hGIPR Emax, % ± SEM), 93.9%.
